One may read the IC50 as the point on the concentration scale where inhibition reaches its midpoint.

Each structure is given as a SMILES string. Like-named read-outs stand apart in the source and are kept apart here.

The nature of data set [1]: Human plasma protein binding. It is filed as in vitro ADME. Particulars: for fraction unbound: human. Here is the method:
An aliquot of 200 μL of human plasma containing test compound was spiked into donor well (red chamber) of the insert. 350 μL of PBS was spiked into receiver well (white chamber) of the insert.
The samples were matrix equilibrated with opposite matrix (25 μL of plasma/buffer sample was matched with 25 μL of blank buffer/plasma). Matrix matched samples were precipitated with 200 μL of acetonitrile containing internal standard. Samples were vortexed at 1000 rpm for 5 min and centrifuged at 4000 rpm for 10 min. Supernatant was separated, diluted 2 fold with water and analysed in LC-MS/MS. (Table 2).

The target in data set [2] is T1, recombinant human (rh) PDE5A (Homo sapiens, UniProt O76074).
T1 construct: GST; purchased SIGMA E9034
Nature of the data set: Phosphodiesterase-5 activity assay (radiometric SPA). It is filed as biochemical. Particulars: rhPDE5A1, 0.5 μM cGMP, 20 min at 37° C.

Data set [3] deals with Human Trabecular Meshwork Cells. Description: Cellular cGMP assay in human trabecular meshwork cells. The class given is cell-based. Particulars: HTMC, 10 μM Riociguat; for Concentration (nM) for 3-fold or 2-fold* cGMP increase vs Baseline: 2-fold increase (values marked *); for Ratio Maximum cGMP increase vs Baseline: 5 mM GSH, incubation 2 h.
Data set [4] relates to Human Platelets. Description: Total cGMP in human platelets. Particulars: for Ratio Maximum cGMP increase vs Baseline: 1 μM riociguat and 100 nM BAY 190954, incubation 2 h; for Concentration (nM) for 3-fold cGMP or 2-fold* increase vs Baseline: 2-fold increase (values marked *), 1 μM riociguat, 100 nM BAY 190954. The class given is cell-based. Here is the method:
Effects of test and reference compounds on total cGMP in human platelets were investigated as described by Dunkern and Hatzelmann (Cell Signal. 17: 331-9, 2005) with modifications. Briefly, buffy coats (acquired form SRK Blutspende Zurich) were 4-fold diluted in 150 mM sodium chloride solution containing 0.9% sodium citrate and centrifuged at 200 g for 10 min. The resulting platelet-rich plasma was supplemented with a 1/10 volume of ACD solution (85 mM sodium citrate, 111 mM D-glucose, 71 mM citric acid, pH 4.4) and apyrase (Sigma AG) to a final concentration of 2 U/ml. After another centrifugation (1400 g, 10 min) the cellular pellet was resuspended in Ca2+/Mg2+-free Hepes-Tyrode buffer (134 mM NaCl, 12 mM NaHCO3, 2.9 mM KCl, 0.36 mM NaH2PO4, 5 mM HEPES, 5 mM glucose, 0.5% (w/v) bovine serum albumin, pH 7.4) and platelets were counted.
Platelets were used at 9×10^7 cells in 100 μl per well and after adding test and reference compounds the incubation volume was 200 μl per well in Hepes-Tyrode. Experiments in platelets were done in presence of 1 μM riociguat and 100 nM BAY 190954 (PDE2 inhibitor) (Lucerna Chem AG) and test/reference compounds were added after a preincubation time of 15 min. At the end of the incubation time (see below) the reaction was terminated by adding 20 μl of 2N HCl per well. Following a 20 sec on a plate shaker (300 rpm) the plate was left for 15 min and then centrifuged at 1000×g for 5 min. Supernatants were stored at −80° C.
cGMP was determined by a commercially available ELISA kit (Direct cGMP ELISA kit, Enzo Life Sciences AG, Lauren, Switzerland) with a lower detection limit of 0.08 pmol/ml using the acetylation protocol following manufacturer's instructions. Results are given as the means from at least two independent experiments each in triplicate.
To study concentration-dependent effects on total cGMP test and reference compounds were investigated from 0.1 nM to 1 μM in half-logarithmic steps with an incubation time of 2 h. To examine the time course the incubation times were (min) 10, 30, 60, 90, 120 at 1 μM of test or reference compound.
Compounds were diluted from stock solutions in DMSO. The final concentration of DMSO in all wells including the vehicle controls was 0.2% for human trabecular meshwork and rat aortic smooth muscle cells and 0.3% for platelets.
From time course experiments, the time to half of the maximum cGMP increase with 1 μM of test compound has been extrapolated (t0.5max).

Where [5] appears, read: read-out: % Bound in human plasma (converted).
[6] abbreviates: read-out: % Unbound in human plasma.

With `CCCc1nc(C)c2c(=O)[nH]c(-c3cc(S(=O)(=O)N4CCC([C@H](O)CO[N+](=O)[O-])CC4)ccc3OCC)nn12` [Compound 2d, (S)-2-(1-((4-ethoxy-3-(5-methyl-4-oxo-7-propyl-3,4-dihydroimidazo[5,1-f][1,2,4]triazin-2-yl)phenyl)sulfonyl)piperidin-4-yl)-2-hydroxyethyl nitrate], the fraction unbound in data set [1] (setting [5]) and in data set [1] (setting [6]) was 0.0173 throughout. The IC50 in data set [2] came to 0.16 nM.

`CCCc1nc(C)c2c(=O)[nH]c(-c3cc(S(=O)(=O)N4CCC(C(O)(CCO)CCO[N+](=O)[O-])CC4)ccc3OCC)nn12` (stereo not drawn) [Compound 2g, 3-(1-((4-ethoxy-3-(5-methyl-4-oxo-7-propyl-3,4-dihydroimidazo[5,1-f][1,2,4]triazin-2-yl)phenyl)sulfonyl)piperidin-4-yl)-3,5-dihydroxypentyl nitrate]: in data set [1], the “% Bound in human plasma” value is 98.29%. The fraction unbound in data set [1] (setting [6]) is 0.0171. In data set [3], the “Concentration (nM) for 3-fold or 2-fold* cGMP increase vs Baseline” value is on record as 22.2* nM and the “Ratio Maximum cGMP increase vs Baseline” value was 109.1. For the same molecule, in data set [4], the “Ratio Maximum cGMP increase vs Baseline” value is 183.5. Besides, in data set [2], the IC50 is 0.37 nM.

For `CCCc1nc(C)c2c(=O)[nH]c(-c3cc(S(=O)(=O)N4CCC(C(O)(CCO[N+](=O)[O-])CCO[N+](=O)[O-])CC4)ccc3OCC)nn12` [Compound 2h, 3-(1-((4-ethoxy-3-(5-methyl-4-oxo-7-propyl-3,4-dihydroimidazo[5,1-f][1,2,4]triazin-2-yl)phenyl)sulfonyl)piperidin-4-yl)-3-hydroxypentane-1,5-diyl dinitrate], the “% Bound in human plasma” value in data set [1] was 99.77%. The fraction unbound in data set [1] (setting [6]) was 0.0023. Also, in data set [4], the “Ratio Maximum cGMP increase vs Baseline” value is recorded as 171.3. In data set [2], the IC50 is 1 nM.

In the case of `CCCc1nc(C)c2c(=O)[nH]c(-c3cc(S(=O)(=O)N4CCC(C(O)C(CO[N+](=O)[O-])CO[N+](=O)[O-])CC4)ccc3OCC)nn12` (stereo not drawn) [Compound 2i, 2-((1-((4-ethoxy-3-(5-methyl-4-oxo-7-propyl-3,4-dihydroimidazo[5,1-f][1,2,4]triazin-2-yl)phenyl)sulfonyl)piperidin-4-yl)(hydroxy)methyl)propane-1,3-diyl dinitrate], the “% Bound in human plasma” value in data set [1] was 99.99%. Also, in data set [1] (setting [6]), the fraction unbound was found to be 0.0001. Moreover, the “Ratio Maximum cGMP increase vs Baseline” value in data set [4] is 932.9. Besides, the IC50 in data set [2] stood at 1.5 nM.

`CCCc1nc(C)c2c(=O)[nH]c(-c3cc(S(=O)(=O)N4CCC(CC(CO[N+](=O)[O-])CO[N+](=O)[O-])CC4)ccc3OCC)nn12` [Compound 2m, 2-((1-((4-ethoxy-3-(5-methyl-4-oxo-7-propyl-3,4-dihydroimidazo[5,1-f][1,2,4]triazin-2-yl)phenyl)sulfonyl)piperidin-4-yl)methyl)propane-1,3-diyl dinitrate]: in data set [1], the “% Bound in human plasma” value came to 99.92%. The fraction unbound in data set [1] (setting [6]) is 0.0008. Also, in data set [4], the “Ratio Maximum cGMP increase vs Baseline” value is 262.3. Besides, in data set [2], the IC50 came to 0.44 nM.

Consider `CCCc1nc(C)c2c(=O)[nH]c(-c3cc(S(=O)(=O)N4CCC(CC(CO)CO[N+](=O)[O-])CC4)ccc3OCC)nn12` (stereo not drawn) [Compound 2n, 3-(1-((4-ethoxy-3-(5-methyl-4-oxo-7-propyl-3,4-dihydroimidazo[5,1-f][1,2,4]triazin-2-yl)phenyl)sulfonyl)piperidin-4-yl)-2-(hydroxymethyl)propyl nitrate], for which the “% Bound in human plasma” value in data set [1] amounted to 99.48%. For the same molecule, the fraction unbound in data set [1] (setting [6]) turned out to be 0.0052. In data set [4], the “Ratio Maximum cGMP increase vs Baseline” value is listed as 161.0. Further, in data set [2], the IC50 was 0.47 nM.

For `CCCc1nc(C)c2c(=O)[nH]c(-c3cc(S(=O)(=O)N4CCC(CC(C)(CO[N+](=O)[O-])CO[N+](=O)[O-])CC4)ccc3OCC)nn12` [Compound 2o, 2-((1-((4-ethoxy-3-(5-methyl-4-oxo-7-propyl-3,4-dihydroimidazo[5,1-f][1,2,4]triazin-2-yl)phenyl)sulfonyl)piperidin-4-yl)methyl)-2-methylpropane-1,3-diyl dinitrate], in data set [1], the “% Bound in human plasma” value was determined as 99.95%. Further, the fraction unbound in data set [1] (setting [6]) was 0.0005. For the same molecule, in data set [3], the “Concentration (nM) for 3-fold or 2-fold* cGMP increase vs Baseline” value is on record as 1.9* nM and the “Ratio Maximum cGMP increase vs Baseline” value worked out at 86.9. Further, in data set [4], the “Ratio Maximum cGMP increase vs Baseline” value amounted to 202.8 and the “Concentration (nM) for 3-fold cGMP or 2-fold* increase vs Baseline” value is given as 120* nM. The IC50 in data set [2] came out at 0.52 nM.

For `CCCc1nc(C)c2c(=O)[nH]c(-c3cc(S(=O)(=O)N4CCC(CC(C)(CO)CO[N+](=O)[O-])CC4)ccc3OCC)nn12` (stereo not drawn) [Compound 2p, 3-(1-((4-ethoxy-3-(5-methyl-4-oxo-7-propyl-3,4-dihydroimidazo[5,1-f][1,2,4]triazin-2-yl)phenyl)sulfonyl)piperidin-4-yl)-2-(hydroxymethyl)-2-methylpropyl nitrate], in data set [1], the “% Bound in human plasma” value amounted to 99.66%. Moreover, in data set [1] (setting [6]), the fraction unbound was found to be 0.0034. For the same molecule, in data set [3], the “Concentration (nM) for 3-fold or 2-fold* cGMP increase vs Baseline” value is reported as 1.4* nM and the “Ratio Maximum cGMP increase vs Baseline” value is 46.1. Also, in data set [4], the “Ratio Maximum cGMP increase vs Baseline” value is recorded as 204.1 and the “Concentration (nM) for 3-fold cGMP or 2-fold* increase vs Baseline” value was 102* nM. The IC50 in data set [2] came out at 0.11 nM.

In the case of `CCCc1nn(C)c2c(=O)[nH]c(-c3cc(S(=O)(=O)N4CCC(C(O)C(CO)CO)CC4)ccc3OCC)nc12` (stereo not drawn) [Compound 22, 5-(5-((4-(1,3-dihydroxy-2-(hydroxymethyl)propyl)piperidin-1-yl)sulfonyl)-2-ethoxyphenyl)-1-methyl-3-propyl-1,6-dihydro-7H-pyrazolo[4,3-d]pyrimidin-7-one], the fraction unbound in data set [1] (setting [5]) and in data set [1] (setting [6]) was 0.036 throughout. The IC50 in data set [2] is 8.5 nM.

For `CCCc1nc(C)c2c(=O)[nH]c(-c3cc(S(=O)(=O)N4CCC(C(O)(CCO)CCO)CC4)ccc3OCC)nn12` [Compound 28, 2-(2-ethoxy-5-((4-(1,3,5-trihydroxypentan-3-yl)piperidin-1-yl)sulfonyl)phenyl)-5-methyl-7-propylimidazo[5,1-f][1,2,4]triazin-4(3H)-one], the fraction unbound in data set [1] (setting [5]) and in data set [1] (setting [6]) was 0.069 throughout. For the same molecule, in data set [2], the IC50 was determined as 0.19 nM.

For the molecule `CCCc1nc(C)c2c(=O)[nH]c(-c3cc(S(=O)(=O)N4CCC(CC(CO)CO)CC4)ccc3OCC)nn12` [Compound 43, 2-(2-ethoxy-5-(4-(3-hydroxy-2-(hydroxymethyl)propyl)piperidin-1-ylsulfonyl)phenyl)-5-methyl-7-propylimidazo[1,5-f][1,2,4]triazin-4(3H)-one], the fraction unbound in data set [1] (setting [5]) and in data set [1] (setting [6]) was 0.022 throughout. The “Ratio Maximum cGMP increase vs Baseline” value in data set [4] is 28.5. Also, the IC50 in data set [2] was 0.13 nM.

In the case of `CCCc1nc(C)c2c(=O)[nH]c(-c3cc(S(=O)(=O)N4CCC(CC(C)(CO)CO)CC4)ccc3OCC)nn12` [Compound 47, 2-(2-ethoxy-5-((4-(3-hydroxy-2-(hydroxymethyl)-2-methylpropyl)piperidin-1-yl)sulfonyl)phenyl)-5-methyl-7-propylimidazo[5,1-f][1,2,4]triazin-4(3H)-one], the “Ratio Maximum cGMP increase vs Baseline” value in data set [4] is given as 39.0. The IC50 in data set [2] came to 0.022 nM.

For the origin of these results see patent publication US12502393B2, “Dual mode of action soluble guanylate cyclase activators and phosphodiesterase inhibitors and uses thereof” (TOPADUR PHARMA AG, priority 2018, dated 2025).
